Measured values: patent US20090298752A1, “APLIDINE TREATMENT OF CANCERS” (PHARMA MAR, S.A., priority 1999, published 2009)
“Also recorded” adds a separate entry of the source.

Columns and labels:
[1] = system: FLT-1 (VEGF-R1); assay: cDNA expression array, PCR, Western in MOLT-4 cells; format: cell-based, human; settings: for quantitative change in FLT-1 expression: MOLT-4, 1 h treatment
Procedure: (§1) The early changes in gene expression induced by aplidine in MOLT-4 cells were evaluated by using cDNA expression arrays (Atlas Human Cancer, Clontech). MOLT-4 cells were treated for 1 hour with concentrations of aplidine which inhibit the growth by 50% and total RNA was isolated at 0, 1, 6 and 24 hours after drug wash out. Filters were hybridised with equal amount of 32P labelled cDNA. Analysis of the results was carried out using ATLAS IMAGE 1.0 software. Changes in gene expression greater than 2 fold were taken as significant changes in RNA expression and subsequently confirmed by PCR.
as §1, with “In the present study we have evaluated the early” for “The early”, “cells” for “cells were evaluated”, “of aplidien” for “of aplidine”, “isolated t” for “isolated at”, “equal amounts” for “equal amount”, “PCR. […] Whether the down-regulation of flt-1 is involved in the cytotoxic and antitumour effect of aplidine is under investigation at the moment.” for “PCR.”
(§2) The human leukaemia cell line MOLT-4 was used for these experiments MOLT-4 cells were treated for 1 hour with 20 nM of aplidine. Total RNA was extracted at the end of treatment and 6 and 24 hours after recovery in drug-free medium.
(§3) 5 μg of total RNA were retrotanscribed to cDNA in the presence of ^32P dATP. Equal amounts of radioactive probes were hybridised to Atlas Human Cancer Microarrays (Clontech). After washing, filter were exposed and the results analysed using the Atlas Image software. Only a gene expression difference greater than 2 fold between treated and untreated cells were taken into account. RT-PCR and northern analysis have been performed to confirm the changes in gene expression found with the microarrays.

[2] = system: B-RAF; assay: cDNA expression array in MOLT-4 cells; format: cell-based, human; settings: for quantitative change in B-RAF expression: MOLT-4, 1 h treatment
Procedure: as §1
as §1, with “In the present study we have evaluated the early” for “The early”, “cells” for “cells were evaluated”, “of aplidien” for “of aplidine”, “isolated t” for “isolated at”, “equal amounts” for “equal amount”, “PCR. […] Whether the down-regulation of flt-1 is involved in the cytotoxic and antitumour effect of aplidine is under investigation at the moment.” for “PCR.”
as §2, §3

[3] = system: DNA-PK; assay: cDNA expression array in MOLT-4 cells; format: cell-based, human; settings: MOLT-4, 1 h treatment
Procedure: as §1
as §1, with “In the present study we have evaluated the early” for “The early”, “cells” for “cells were evaluated”, “of aplidien” for “of aplidine”, “isolated t” for “isolated at”, “equal amounts” for “equal amount”, “PCR. […] Whether the down-regulation of flt-1 is involved in the cytotoxic and antitumour effect of aplidine is under investigation at the moment.” for “PCR.”
as §2, §3

[4] = system: ETR; assay: cDNA expression array in MOLT-4 cells; format: cell-based, human
Procedure: as §1
as §1, with “In the present study we have evaluated the early” for “The early”, “cells” for “cells were evaluated”, “of aplidien” for “of aplidine”, “isolated t” for “isolated at”, “equal amounts” for “equal amount”, “PCR. […] Whether the down-regulation of flt-1 is involved in the cytotoxic and antitumour effect of aplidine is under investigation at the moment.” for “PCR.”
as §2, §3

[5] = system: FMS; assay: cDNA expression array in MOLT-4 cells; format: cell-based, human; settings: for quantitative change in FMS expression: MOLT-4, 1 h treatment
Procedure: as §1
as §1, with “In the present study we have evaluated the early” for “The early”, “cells” for “cells were evaluated”, “of aplidien” for “of aplidine”, “isolated t” for “isolated at”, “equal amounts” for “equal amount”, “PCR. […] Whether the down-regulation of flt-1 is involved in the cytotoxic and antitumour effect of aplidine is under investigation at the moment.” for “PCR.”
as §2, §3

[6] = system: PLK-1; assay: cDNA expression array in MOLT-4 cells; format: cell-based, human; settings: MOLT-4, 1 h treatment
Procedure: as §1
as §1, with “In the present study we have evaluated the early” for “The early”, “cells” for “cells were evaluated”, “of aplidien” for “of aplidine”, “isolated t” for “isolated at”, “equal amounts” for “equal amount”, “PCR. […] Whether the down-regulation of flt-1 is involved in the cytotoxic and antitumour effect of aplidine is under investigation at the moment.” for “PCR.”
as §2, §3

[7] = system: VEGF promoter; assay: VEGF promoter luciferase reporter in MOLT-4 cells; format: cell-based, human; settings: luciferase after 24 hours vs renilla
Procedure: Cells were transfected with the VEGF promoter (spanning the first 1000 bases upstream the starting site linked to luciferase reporter gene and with a control plasmid containing the renilla reporter gene. Cells were then treated with different concentrations of aplidine and luciferase activity was measured after 24 hours and compared to renilla activity.

[8] = system: VEGF promoter; assay: VEGF promoter activity, luciferase/renilla reporter gene system; format: cell-based; settings: FIG. 13
[9] = system: brain cells (neurons and astrocytes); assay: fluorescent viability stain with immunocytochemistry; format: cell-based; settings: ethidium homodimer and calcein AM
Text: (§4) The motor neuron sensitivity may help to explain the type II muscle atrophy observed (as predicted) in a small group of patients where the AUC concentration of the drug is elevated due to diminished excretion.

[10] = system: motor (choline acetyl transferatse positive) neurons in the spinal cord; assay: as above; format: cell-based; settings: ethidium homodimer and calcein AM
Text: as §4

[11] = system: substance P positive sensory neurones; assay: as above; format: cell-based; settings: ethidium homodimer and calcein AM
Text: as §4

[12] = system: solid tumours and non-Hodgkin lymphoma; assay: Phase I, 24 h infusion every 2 weeks: antitumour activity; format: in vivo, human
Procedure: Aplidine is given as a 24 hour infusion every 2 weeks. The starting dose was 200 μg/m^2/d and dose escalation proceed including so far 400, 800, 1600, and 3200 μg/m^2/d. A total of 18 patients (M/F: 7/11, median age 52, OMS 0/1:10/8) have been entered. […] Among evaluable patients, toxicity consisted of mild grade I-II nausea/vomiting, grade I-II asthenia, and cramping occurring during or immediately after the infusion. No neuromuscular toxicity were reported at the evaluated doses. One patient with an advanced lung cancer and documented tumour progression at the dose of 1600 μg/m^2 developed a haemolytic anaemia and thrombocytopenia that was considered unlikely related to the study drug. […] An open 2-compartment model fits appropriately most plasma concentration profiles. […] The accrual is ongoing to determine the dose limiting toxicity and the dose to be recommended in phase II studies.
Aplidine was given to patients with solid tumour/NHL as a 24 hr infusion/q2w to 35 patients (median: age=51/ECOG=1) with solid tumour (32 pts) or NHL (3 pts). 23/35 patients were previously exposed to ≧3 previous lines of chemotherapy. Nine dose levels (200-7000 μg/m^2/w/q2w) and 65 cycles (120 infusions) were given. […] Toxicity consisted of G2-3 asthenia and emesis in 9-2 patients and 12-1 pts, respectively. G3 nausea/vomiting (≧5000 μg/m^2) was efficiently treated then prevented with 4HT3-regimens. […] At the dose of 5000 μg/m^2/w/q2w, 2 patients experienced transient muscle cramps with reversible G3 CPK-MM elevations. Among 9 patients treated at 6000 μg/m^2/w, 3 patients experienced an increase of CPK-MM and aldolase after the 3rd injection of aplidine. CPK elevations were G1-2 and not symptomatic in 2 patients but a G3 CPK elevation with G3 muscular pain and loss of muscle strength (DLT) was reported in 1 pt. This was reversible with no sequel. […] Ultrastructural electron microscopy indicated no morphological mitochondria alteration but a lost of the thick myosin filaments. At 7000 μg/m^2/q2w, 4 patients have been entered. […] Mechanistic hypothesis and preventive strategies against muscle toxicity are under evaluation.

[13] = Phase I, 1 h weekly infusion x3 q4wk: toxicity and pharmacokinetics; format: in vivo, human
[14] = MOLT-4, 20 nM 1 h, at the end of treatment
[15] = MOLT-4, 6 hours after recovery in drug-free medium

## aplidine
[1]; [14]
  expression of VEGF-RI/flt-1 gene, in words: decreased
[1]; MOLT-4, 20 nM 1 h, by 6 and 24 hours
  levels of flt-1, in words: further decreased
[1]; 1 Hour
  quantitative change in FLT-1 expression: −1.5 fold
[1]; 6 Hours
  quantitative change in FLT-1 expression: −5.0 fold
[1]; 24 Hours
  quantitative change in FLT-1 expression: −3.4 fold
[1]; MOLT-4, RNA level by PCR, protein level by Western blotting
  expression of VEGF-R1 (flt-1), in words: downregulated; also recorded: inhibits expression; also recorded: marked time-dependent reduction; also recorded: decrease in flt-1 mRNA
[2]; 6 Hours
  quantitative change in B-RAF expression: +2.0 fold
[2]; 24 Hours
  quantitative change in B-RAF expression: +2.6 fold
[2]; [15]
  levels of B-RAF, in words: increase
[3]; 6 Hours
  quantitative change in DNA-PK expression: +3.0 fold
[3]; 24 Hours
  quantitative change in DNA-PK expression: +3.8 fold
[4]; MOLT-4, 20 nM 1 h, after 6 and 24 hours
  ETR levels, in words: returned to normal level
[4]; [14]
  expression of early response gene ETR, in words: increased
[4]; MOLT-4, 1 h treatment, 1 Hour
  quantitative change in ETR expression: +2.7 fold
[5]; 6 Hours
  quantitative change in FMS expression: +2.7 fold
[5]; 24 Hours
  quantitative change in FMS expression: +2.1 fold
[5]; [15]
  levels of Fms, in words: increase
[6]; 6 Hours
  quantitative change in PLK-1 expression: +3.0 fold
[6]; 24 Hours
  quantitative change in PLK-1 expression: +4.4 fold
[7]
  activity of transfected VEGF promoter, in words: dose not decrease the activity of VEGF promoter; also recorded: did not decrease the transcription of VEGF
[8]
  promoter activity of VEGF, in words: does not affect the promoter activity of VEGF
[9]
  toxic concentration: approximately 1 μM
[10]
  toxic concentration: approximately 1 μM
[11]
  toxicity at approximately 1 μM: but not substance P positive sensory neurones
[12]; Example 6
  response, patient with non-Hodgkin lymphoma: Clinical improvement
[12]; Example 14
  Activity observed in NHL: 1/3
  Activity observed in molecular thyroid: 2/2
  Activity observed in neuroendocrine cancer: 1 pt
  Activity observed in renal: 1/5
[12]; Example 18
  antitumour activity in NHL and renal carcinoma: Antitumour activity has been also noted
[13]; 2700 mcg/m^2/wk x3, 8 patients, footnote DLT
  Alk. Phos. G3 (worst toxicity per patient): (1)^(2)
[13]; 2700 mcg/m^2/wk x3, 8 patients, one with Hepatitis C, 2 reversible by day 8, 1 DLT
  Transaminitis G3 (worst toxicity per patient): 4
[13]; 3600 mcg/m^2/wk x3, 2 patients
  Myalgia G2 (worst toxicity per patient): 1
